Reference: patent US20100160255A1, “SPIRO-CYCLIC COMPOUND” (Takeda Pharmaceutical Company Limited, priority 2005, published 2010)
pIC50: −log10 of the molar value. Like-named read-outs stand apart in the source and are kept apart here.

Key:
human ACC2 = biological target: T1, human ACC2 (Homo sapiens, UniProt O00763); test: ACC2 inhibitory activity (malachite green absorbance assay, recombinant ACC2(Nd)); format: biochemical
T1 construct: made in house; host or cells: SF-9 insect cells, recombinant baculovirus BAC-ACC2(Nd)
Protocol: The ACC2 inhibitory activity of the compound of the present invention was evaluated by the following method.
(§1) Human ACC2 gene was cloned by PCR using human skeletal muscle cDNA library (Clontech) as a template, and Primer 1 and Primer 2 shown below. Primer 1 and Primer 2 were prepared by adding recognition sequence of restriction enzymes SalI and XbaI based on the information of the base sequence (Genbank Accession U89344) of human ACC2 gene.
(§2) PCR was performed using Pyrobest DNA polymerase (TAKARA BIO INC.). The obtained PCR product was cloned to pT7 Blue vector (Novagen) which was, after confirmation of the base sequence, digested with restriction enzymes SalI and XbaI. The obtained DNA fragment was inserted into pFAST-BacHTa (Invitrogen) digested with restriction enzymes SalI and XbaI to give expression plasmid ACC2/pFAST-BacHTa.
A plasmid for expression of ACC2 free of mitochondrial targeting sequence was prepared by PCR using the expression plasmid as a template, and Primer 3 and Primer 4 shown below.
as §2, with “AflII.” for “XbaI.”, “AflII” for “XbaI”, “ACC2mito7/pFAST-BacHTa.” for “ACC2/pFAST-BacHTa.”
Using the expression plasmid and BAC-TO-BAC Baculovirus Expression System (Invitrogen), virus stock BAC-ACC2 of recombinant Baculovirus (N terminal deletion (hereinafter Nd)) was prepared.
SF-9 cells (Invitrogen) were sown at 0.5×10^6 cells/mL to insect cell culture medium (2 L, Sf-900II SFM medium (Invitrogen) containing 10% fetal bovine serum (Trace), 50 mg/L gentamicin (Invitrogen) and 0.1% Pluronic F-68 (Invitrogen)), and shaking culture was performed using a Wave Bioreactor (Wave) under the conditions of 27° C., 20 rpm, rocking angle of 6° and oxygen concentration of 30%.
On day 4 of the culture, 3 L of an insect cell culture medium was added, the rocking angle was set to 8°, and the cells were further cultured. On day 5 of the culture, the recombinant Baculovirus BAC-ACC2(Nd) (100 mL) was added, 5 L of the insect cell culture medium was further added, the rocking angle was set to 11°, and the cells were cultured for 3 days. The culture medium was centrifuged at 1000×g for 10 min to give virus-infected cells. The infected cells were washed with phosphate buffered saline (Invitrogen) and centrifuged under the same conditions, and the obtained cells were cryopreserved at −80° C.
The cryopreserved cells were thawed in ice, suspended in 25 mM HEPES buffer (900 mL, pH 7.5) containing 10% Glycerol, 0.13 M NaCl, 1 mM EDTA, 25 mM sodium β-glycerophosphate, 1 mM sodium orthovanadate, added with Complete Protease Inhibitor (Boehringer). The obtained suspension was homogenized 3 times with a Polytron homogenizer (Kinematica) at 20,000 rpm for 30 seconds. The obtained cell disrupt solution was clarified by centrifugation at 31000×g for 60 min and filtrated using a 0.45 μm filter. The filtrate was passed through a column packed with Ni-NTA Super Flow Gel (QIAGEN, 60 mL) at a flow rate of about 5 mL/min. The column was washed with buffer A (50 mM HEPES containing 0.3M NaCl, pH 7.5), further washed with buffer A containing 20 mM Imidazole, and eluted with buffer A containing 100 mM Imidazole. The eluate was concentrated with Vivaspin 20 (Vivascience) having a molecular weight cut off of 30 K. The obtained concentrate was dialyzed against 50 mM HEPES (pH7.5) containing 10 mM MgCl2, 2 mM dithiothreitol, 10 mM tripotassium citrate and 0.3M NaCl. The dialysate was filtered through a 0.22 μm filter to give ACC2(Nd). The obtained ACC2(Nd) was cryopreserved at −80° C. […]

human ACC1 = biological target: T2, human ACC1 (Homo sapiens, UniProt Q13085); test: ACC1 inhibitory activity (malachite green absorbance assay, recombinant enzyme); format: biochemical
T2 construct: made in house; host or cells: SF-9 insect cells, recombinant baculovirus BAC-ACC1
Protocol: The ACC1 inhibitory activity of the compound of the present invention was evaluated by the following method.
as §1, with “ACC1” for “ACC2”, “liver” for “skeletal muscle”, “NotI” for “XbaI”, “U19822)” for “U89344)”
as §2, with “NotI.” for “XbaI.”, “pFAST-BacHTc” for “pFAST-BacHTa”, “NotI” for “XbaI”, “ACC1/pFAST-BacHTc.” for “ACC2/pFAST-BacHTa.”
Using the expression plasmid and BAC-TO-BAC Baculovirus Expression System (Invitrogen), virus stock BAC-ACC1 of recombinant Baculovirus was prepared.
SF-9 cells (Invitrogen) were sown at 1×10^6 cells/mL to insect cell culture medium (1 L, Sf-900II SFM medium (Invitrogen) containing 10% fetal bovine serum (Trace), 50 mg/L gentamicin (Invitrogen) and 0.1% Pluronic F-68 (Invitrogen)), and shaking culture was performed using a 2 L volume Erlenmeyer flask at 27° C., 100 rpm.
After culturing for 24 hr, the recombinant Baculovirus BAC-ACC1 (10 mL) was added, and the mixture was further cultured for 3 days. The culture medium was centrifuged at 1000×g for 5 min to give virus-infected cells. The infected cells were washed with phosphate buffered saline (Invitrogen) and centrifuged under the same conditions, and the obtained cells were cryopreserved at −80° C.
The cryopreserved cells were thawed in ice, suspended in 25 mM HEPES buffer (100 mL, pH 7.5) containing 10% Glycerol, 0.13 M NaCl, 1 mM EDTA, 25 mM sodium β-glycerophosphate, 1 mM sodium orthovanadate, added with Complete Protease Inhibitor (Boehringer). The obtained suspension was homogenized 3 times with a Polytron homogenizer (Kinematica) at 20,000 rpm for 30 seconds. The obtained cell disrupt solution was clarified by centrifugation at 185700×g for 50 min and filtrated using a 0.45 μm filter. The filtrate was passed through a column packed with Ni-NTA Super Flow Gel (QIAGEN, 12 mL) at a flow rate of about 5 mL/min. The column was washed with buffer A (50 mM HEPES containing 0.3M NaCl, pH 7.5), further washed with buffer A containing 20 mM Imidazole, and eluted with buffer A containing 100 mM Imidazole. The eluate was concentrated with Vivaspin 20 (Vivascience) having a molecular weight cut off of 30 K. The obtained concentrate was dialyzed using Sephadex G-25 (Amersham Bioscience K.K., 358 mL) equilibrated with 50 mM HEPES (pH7.5) containing 10 mM MgCl2, 2 mM dithiothreitol, 10 mM tripotassium citrate and 0.3M NaCl. The dialysate was concentrated with Vivaspin 20 (Vivascience) having a molecular weight cut off of 30 K and the concentrate was filtered through a 0.22 μm filter to give ACC1. The obtained ACC1 was cryopreserved at −80° C.
ACC1 (0.93 mg/ml) obtained in (2) above was diluted to a concentration of 8 μg/ml with an enzyme reaction buffer (50 mM HEPES (pH7.5), 10 mM MgCl2, 10 mM tripotassium citrate, 2 mM dithiothreitol, 0.75 mg/ml fatty acid free BSA), and added to each well of a 384 well assay plate (Nunc 265196) by 10 μl. […]

[1] = Table 9, recombinant human ACC2(Nd), N terminal deletion, 30° C., absorbance 620 nm, read-out: IC50 (ACC2 inhibitory activity)
[2] = Table 8, recombinant human ACC1, 30° C., absorbance 620 nm, read-out: IC50 (ACC1 inhibitory activity)
[3] = Experimental Example 3, same manner as Experimental Example 1, read-out: IC50 values (ACC1 inhibitory activity)

T1 sequence (O00763 117-2458 limits assumed): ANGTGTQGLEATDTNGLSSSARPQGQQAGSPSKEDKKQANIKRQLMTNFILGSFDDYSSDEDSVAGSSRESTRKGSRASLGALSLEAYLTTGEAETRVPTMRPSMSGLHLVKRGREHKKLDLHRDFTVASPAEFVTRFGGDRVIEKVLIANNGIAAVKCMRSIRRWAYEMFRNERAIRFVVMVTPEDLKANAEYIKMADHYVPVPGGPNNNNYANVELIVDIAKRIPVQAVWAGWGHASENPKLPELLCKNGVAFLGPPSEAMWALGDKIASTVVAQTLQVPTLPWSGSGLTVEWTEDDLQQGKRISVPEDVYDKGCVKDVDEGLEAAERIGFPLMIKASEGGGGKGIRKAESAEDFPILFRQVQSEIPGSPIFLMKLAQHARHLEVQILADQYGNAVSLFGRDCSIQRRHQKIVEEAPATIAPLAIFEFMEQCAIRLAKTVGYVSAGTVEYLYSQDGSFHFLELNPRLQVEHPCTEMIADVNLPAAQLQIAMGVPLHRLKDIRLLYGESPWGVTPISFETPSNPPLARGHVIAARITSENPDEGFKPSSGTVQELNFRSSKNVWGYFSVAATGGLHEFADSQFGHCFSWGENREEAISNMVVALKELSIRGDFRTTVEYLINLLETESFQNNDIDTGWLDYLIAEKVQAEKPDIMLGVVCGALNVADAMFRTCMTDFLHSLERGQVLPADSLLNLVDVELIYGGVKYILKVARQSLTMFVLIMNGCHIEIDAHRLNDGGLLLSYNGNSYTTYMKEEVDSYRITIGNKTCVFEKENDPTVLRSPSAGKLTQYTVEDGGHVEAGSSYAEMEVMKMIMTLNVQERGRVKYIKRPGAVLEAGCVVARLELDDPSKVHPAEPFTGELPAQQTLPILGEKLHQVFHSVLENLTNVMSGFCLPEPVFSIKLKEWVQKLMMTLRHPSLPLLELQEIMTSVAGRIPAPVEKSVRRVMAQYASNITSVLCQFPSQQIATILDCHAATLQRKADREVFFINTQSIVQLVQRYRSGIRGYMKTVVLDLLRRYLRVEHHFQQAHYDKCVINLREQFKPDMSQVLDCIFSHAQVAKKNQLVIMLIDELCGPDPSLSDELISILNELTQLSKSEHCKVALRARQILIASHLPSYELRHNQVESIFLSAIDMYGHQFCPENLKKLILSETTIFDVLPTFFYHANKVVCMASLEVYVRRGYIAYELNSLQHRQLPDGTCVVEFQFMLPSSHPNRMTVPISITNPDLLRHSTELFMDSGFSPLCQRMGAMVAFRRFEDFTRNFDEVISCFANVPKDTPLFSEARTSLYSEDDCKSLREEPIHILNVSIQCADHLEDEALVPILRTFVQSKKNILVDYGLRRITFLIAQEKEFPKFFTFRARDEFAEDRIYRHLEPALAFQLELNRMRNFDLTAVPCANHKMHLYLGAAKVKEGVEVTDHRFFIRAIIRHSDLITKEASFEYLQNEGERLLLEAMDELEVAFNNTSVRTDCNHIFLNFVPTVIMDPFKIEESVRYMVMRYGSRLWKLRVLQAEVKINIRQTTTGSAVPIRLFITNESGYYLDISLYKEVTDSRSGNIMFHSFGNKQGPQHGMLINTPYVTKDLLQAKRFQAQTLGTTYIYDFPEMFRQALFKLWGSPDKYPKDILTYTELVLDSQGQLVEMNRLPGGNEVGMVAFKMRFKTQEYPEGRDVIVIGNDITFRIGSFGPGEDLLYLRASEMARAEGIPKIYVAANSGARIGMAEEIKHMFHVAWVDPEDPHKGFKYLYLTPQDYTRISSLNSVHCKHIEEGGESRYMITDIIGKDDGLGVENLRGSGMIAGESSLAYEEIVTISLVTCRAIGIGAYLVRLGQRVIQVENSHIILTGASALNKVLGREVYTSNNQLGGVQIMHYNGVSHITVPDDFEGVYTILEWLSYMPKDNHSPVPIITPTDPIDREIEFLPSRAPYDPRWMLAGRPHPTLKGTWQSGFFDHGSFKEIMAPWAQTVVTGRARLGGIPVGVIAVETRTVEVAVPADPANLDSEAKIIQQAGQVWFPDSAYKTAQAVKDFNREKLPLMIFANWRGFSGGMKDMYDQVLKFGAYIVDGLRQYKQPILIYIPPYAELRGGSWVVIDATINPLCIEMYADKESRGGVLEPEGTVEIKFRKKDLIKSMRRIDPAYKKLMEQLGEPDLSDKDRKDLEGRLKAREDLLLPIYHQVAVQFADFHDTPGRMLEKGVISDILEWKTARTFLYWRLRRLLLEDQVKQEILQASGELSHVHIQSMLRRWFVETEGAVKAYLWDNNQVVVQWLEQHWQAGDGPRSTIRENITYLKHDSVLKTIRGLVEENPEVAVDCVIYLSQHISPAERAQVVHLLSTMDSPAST

Compound | pIC50 (human ACC2; [1]) | pIC50 (human ACC1; [2]) | pIC50 (human ACC2; Experimental Example 4, same manner as Experimental Example 2, read-out: IC50 values (ACC2 inhibitory activity)) | pIC50 (human ACC1; [3])
CCNC(=O)Nc1sc2ccccc2c1C(=O)N1CCC(N2CCCC3(C2)OC(=O)N(CC)C3=O)CC1 (racemic) [Example 228, N-ethyl-N′-(3-{[4-(3-ethyl-2,4-dioxo-1-oxa-3,7-diazaspiro[4.5]dec-7-yl)piperidin-1-yl]carbonyl}-1-benzothien-2-yl)urea] | 7.39 | 6.72 |  | 
CCNC(=O)Nc1sc2ccccc2c1C(=O)N1CCC(N2CCCC3(C2)N=C(C)N(CC)C3=O)CC1 (racemic) [Example 233, 1-ethyl-3-(3-{[4-(3-ethyl-2-methyl-4-oxo-1,3,7-triazaspiro[4.5]dec-1-en-7-yl)piperidin-1-yl]carbonyl}-1-benzothien-2-yl)urea] | 7.77 | 6.96 |  | 
CCNC(=O)Nc1sc2ccccc2c1C(=O)N1CCC(N2CCCC3(CCN(CC)C3=O)C2)CC1 (racemic) [Example 321, N-ethyl-N′-(3-{[4-(2-ethyl-1-oxo-2,7-diazaspiro[4.5]dec-7-yl)piperidin-1-yl]carbonyl}-1-benzothien-2-yl)urea] | 7.47 | 6.44 |  | 
CCN1CCC2(CCCN(C3CCN(C(=O)c4c5ccccc5cc5ccccc45)CC3)C2)C1=O (stereo not shown) [Example 1, 7-[1-(9-anthrylcarbonyl)piperidin-4-yl]-2-ethyl-2,7-diazaspiro[4.5]decan-1-one] | 6.85 | 5.72 |  | 
CCNC(=O)Nc1sc2ccccc2c1C(=O)N1CCC(N2CCNC3(C2)CC(C)(C)OC3=O)CC1 (stereo not shown) [Example 184, 1-(3-{[4-(3,3-dimethyl-1-oxo-2-oxa-6,9-diazaspiro[4.5]dec-9-yl)piperidin-1-yl]carbonyl}-1-benzothien-2-yl)-3-ethylurea] |  |  |  | ≥ 7.00
CCNC(=O)Nc1sc2ccccc2c1C(=O)N1CCC(N2CCCC3(CC(C)N(CCO)C3=O)C2)CC1 (stereo not shown) [Example 187, 1-ethyl-3-[3-({4-[2-(2-hydroxyethyl)-3-methyl-1-oxo-2,7-diazaspiro[4.5]dec-7-yl]piperidin-1-yl}carbonyl)-1-benzothien-2-yl]urea] |  |  |  | ≥ 7.00
CCNC(=O)Nc1sc2ccccc2c1C(=O)N1CCC(N2CCCC3(C2)OC(=O)N(C(C)(C)C)C3=O)CC1 (stereo not shown) [Example 350, N-(3-{[4-(3-tert-butyl-2,4-dioxo-1-oxa-3,7-diazaspiro[4.5]dec-7-yl)piperidin-1-yl]carbonyl}-1-benzothien-2-yl)-N′-ethylurea] |  |  |  | ≥ 7.00
CCNC(=O)Nc1sc2ccccc2c1C(=O)N1CCC(N2CCCC3(C2)N=C(CC)N(CC)C3=O)CC1 (stereo not shown) [Example 354, N-(3-{[4-(2,3-diethyl-4-oxo-1,3,7-triazaspiro[4.5]dec-1-en-7-yl)piperidin-1-yl]carbonyl}-1-benzothien-2-yl)-N′-ethylurea] |  |  |  | ≥ 7.00
CCN1C(=O)C2(CCCN(C3CCN(C(=O)c4c(NC(N)=O)sc5ccccc45)CC3)C2)N=C1C(C)C (stereo not shown) [Example 357, N-(3-{[4-(3-ethyl-2-isopropyl-4-oxo-1,3,7-triazaspiro[4.5]dec-1-en-7-yl)piperidin-1-yl]carbonyl}-1-benzothien-2-yl)urea] |  |  |  | ≥ 7.00

Second part, the molecule after the results:

pIC50 (human ACC2; [1]) | pIC50 (human ACC1; [2]) | pIC50 (human ACC2; Experimental Example 4, same manner as Experimental Example 2, read-out: IC50 values (ACC2 inhibitory activity)) | pIC50 (human ACC1; [3]) | Compound
7.64 | 6.46 |  |  | CCN1C(=O)CC2(CCCN(C3CCN(C(=O)c4c(NC(N)=O)sc5ccccc45)CC3)C2)C1=O (racemic) [Example 240, 1-(3-{[4-(2-ethyl-1,3-dioxo-2,7-diazaspiro[4.5]dec-7-yl)piperidin-1-yl]carbonyl)-1-benzothien-2-yl)urea]
8.30 | 7.52 | ≥ 8.00 | ≥ 7.00 | CCNC(=O)Nc1sc2ccccc2c1C(=O)N1CCC(N2CCCC3(C2)CC(C)(C)OC3=O)CC1 (single isomer, unassigned) [Example 319, N-(3-{[4-(3,3-Dimethyl-1-oxo-2-oxa-7-azaspiro[4.5]dec-7-yl)piperidin-1-yl]carbonyl}-1-benzothien-2-yl)-N′-ethylurea]
 |  |  | ≥ 7.00 | CC1(C)CC2(CCCN(C3CCN(C(=O)c4c(NC(N)=O)sc5ccccc45)CC3)C2)C(=O)O1 (stereo not shown) [Example 290, N-(3-{[4-(3,3-dimethyl-1-oxo-2-oxa-7-azaspiro[4.5]dec-7-yl)piperidin-1-yl]carbonyl}-1-benzothien-2-yl)urea]
 |  |  | ≥ 7.00 | Cc1c(C(=O)OC(C)(C)C)sc(NC(N)=O)c1C(=O)N1CCC(N2CCCC3(C2)CC(C)(C)OC3=O)CC1 (stereo not shown) [Example 291, tert-butyl 5-[(aminocarbonyl)amino]-4-{[4-(3,3-dimethyl-1-oxo-2-oxa-7-azaspiro[4.5]dec-7-yl)piperidin-1-yl]carbonyl}-3-methylthiophene-2-carboxylate]
 |  |  | ≥ 7.00 | CNC(=O)Nc1sc2ccccc2c1C(=O)N1CCC(N2CCCC3(C2)CC(C)(C)OC3=O)CC1 (stereo not shown) [Example 324, N-(3-{[4-(3,3-dimethyl-1-oxo-2-oxa-7-azaspiro[4.5]dec-7-yl)piperidin-1-yl]carbonyl}-1-benzothien-2-yl)-N′-methylurea]
